The results in this text go back to ChEMBL document CHEMBL4049405, “Investigation on cellular uptake and pharmacodynamics of DOCK2-inhibitory peptides conjugated with cell-penetrating peptides” (Bioorg Med Chem, 2017).

Molecules are shown by their SMILES. Non-standard residues stand in square brackets, D forms with d. Residues, ends and D or L forms follow the SMILES beside them. *: point of attachment. X1 = O=C(OCCCS*)Oc1ccc2nc(C3=N[C@@H](C(=O)O)CS3)sc2c1; Mpa = O=C(O)CCS

Data set [1] can be described thus: Drug uptake in HEK293T cells expressing luciferase reporter gene at 50 uM measured every 3 mins for 60 mins by luminescence assay relative to 50 uM luciferin. It counts as ADME, cell-based. The note with it: human, hek-293t, 1 h.
Data set [2] is described as follows: Cytotoxicity against HEK293T cells assessed as cell viability at 50 uM by CellTiter-Glo assay relative to control. The note with it: human. Background: In ATP-based viability assays light output follows the ATP content of the culture.
Data set [3] is described as follows: in vitro. The note with it: human, HEK293T cells.
Description: Cytotoxicity against HEK293T cells assessed as cell viability at 1.9 uM by CellTiter-Glo assay relative to control
Data set [4] is described as follows: in vitro. The note with it: human, HEK293T cells. This is another data set of the same source.
Description: Cytotoxicity against HEK293T cells assessed as cell viability at 5.6 uM by CellTiter-Glo assay relative to control
Data set [5] in a line: in vitro. The conditions noted are these: human, HEK293T cells. The source holds these as a separate data set.
Description: Cytotoxicity against HEK293T cells assessed as cell viability at 16.7 uM by CellTiter-Glo assay relative to control

Regarding `CC(C)C[C@H](NC(=O)[C@H](CO)NC(=O)CNC(=O)CCSSCCCOC(=O)Oc1ccc2nc(C3=N[C@@H](C(=O)O)CS3)sc2c1)C(=O)N[C@@H](CCCCN)C(=O)N[C@H](C(=O)N[C@@H](CCCNC(=N)N)C(=O)N[C@H](C(=O)N[C@@H](CC(C)C)C(=O)N[C@@H](CCCCN)C(=O)N[C@@H](CCCNC(=N)N)C(N)=O)C(C)C)[C@@H](C)O` ([Mpa](X1)GSLKTRVLKR-NH2), in data set [1], the “fold change (FC)” value was 11.2. The viability at 50 µM in data set [2] turned out to be 87%. Further, the viability at 1.9 µM in “in vitro [3]” is 101%. In the data set “in vitro [4]”, the viability at 5.6 µM worked out at 100%. For the same compound, the viability at 16.7 µM in the data set “in vitro [5]” is 93.1%.

Take `CC(C)C[C@H](NC(=O)[C@H](CCCCN)NC(=O)CCSSCCCOC(=O)Oc1ccc2nc(C3=N[C@@H](C(=O)O)CS3)sc2c1)C(=O)N[C@@H](Cc1ccccc1)C(=O)N[C@@H](CC(N)=O)C(=O)N[C@@H](CCCCN)C(=O)N[C@@H](CCC(N)=O)C(=O)N[C@@H](CCC(=O)O)C(=O)N[C@@H](Cc1c[nH]c2ccccc12)C(=O)N[C@H](C(=O)N[C@@H](CC(N)=O)C(N)=O)[C@@H](C)O` ([Mpa](X1)KLFNKQEWTN-NH2): the “fold change (FC)” value in data set [1] came to 9.7. Moreover, the viability at 50 µM in data set [2] stood at 99.4%. For the same compound, the viability at 1.9 µM in the data set “in vitro [3]” is 93%. In “in vitro [4]”, the viability at 5.6 µM came out at 98.8%. For the same compound, in “in vitro [5]”, the viability at 16.7 µM amounted to 97.6%.

For the compound `CC(C)C[C@H](NC(=O)[C@H](CCCCN)NC(=O)[C@H](Cc1c[nH]c2ccccc12)NC(=O)[C@H](CCCNC(=N)N)NC(=O)[C@H](CCCCN)NC(=O)CCSSCCCOC(=O)Oc1ccc2nc(C3=N[C@@H](C(=O)O)CS3)sc2c1)C(=O)N[C@@H](Cc1ccccc1)C(=O)N[C@@H](CC(N)=O)C(=O)N[C@@H](CCCCN)C(=O)N[C@@H](CCC(N)=O)C(=O)N[C@@H](CCC(=O)O)C(N)=O` ([Mpa](X1)KRWKLFNKQE-NH2), the “fold change (FC)” value in data set [1] was determined as 13.6. The viability at 50 µM in data set [2] was determined as 93.8%. In “in vitro [3]”, the viability at 1.9 µM was found to be 95.8%. Moreover, the viability at 5.6 µM in the data set “in vitro [4]” is 106%. Moreover, the viability at 16.7 µM in “in vitro [5]” worked out at 93.7%.

As to `CC(C)C[C@H](NC(=O)[C@H](CCCCN)NC(=O)[C@H](Cc1c[nH]c2ccccc12)NC(=O)[C@H](CCCNC(=N)N)NC(=O)[C@H](CCCCN)NC(=O)[C@H](CC(C)C)NC(=O)[C@@H](NC(=O)[C@H](CCCNC(=N)N)NC(=O)[C@@H](NC(=O)[C@H](CCCCN)NC(=O)CCSSCCCOC(=O)Oc1ccc2nc(C3=N[C@@H](C(=O)O)CS3)sc2c1)[C@@H](C)O)C(C)C)C(N)=O` ([Mpa](X1)KTRVLKRWKL-NH2), the “fold change (FC)” value in data set [1] is recorded as 30.7. For the same compound, the viability at 50 µM in data set [2] was 80.1%. In addition, in “in vitro [3]”, the viability at 1.9 µM was found to be 77.7%. Further, the viability at 5.6 µM in the data set “in vitro [4]” is 85.3%. In “in vitro [5]”, the viability at 16.7 µM came to 80.5%.

Turning to `CC(C)C[C@H](NC(=O)CCSSCCCOC(=O)Oc1ccc2nc(C3=N[C@@H](C(=O)O)CS3)sc2c1)C(=O)N[C@@H](CCCCN)C(=O)N[C@@H](CCCNC(=N)N)C(=O)N[C@@H](Cc1c[nH]c2ccccc12)C(=O)N[C@@H](CCCCN)C(=O)N[C@@H](CC(C)C)C(=O)N[C@@H](Cc1ccccc1)C(=O)N[C@@H](CC(N)=O)C(=O)N[C@@H](CCCCN)C(=O)N[C@@H](CCC(N)=O)C(N)=O` ([Mpa](X1)LKRWKLFNKQ-NH2), in data set [1], the “fold change (FC)” value is recorded as 34.5. In data set [2], the viability at 50 µM came to 94%. Also, in the data set “in vitro [3]”, the viability at 1.9 µM came out at 94.2%. Moreover, the viability at 5.6 µM in the data set “in vitro [4]” came to 93.7%. Also, in “in vitro [5]”, the viability at 16.7 µM worked out at 88.1%.

For the compound `CC(C)C[C@H](NC(=O)CCSSCCCOC(=O)Oc1ccc2nc(C3=N[C@@H](C(=O)O)CS3)sc2c1)C(=O)N[C@@H](CCCCN)C(=O)N[C@H](C(=O)N[C@@H](CCCNC(=N)N)C(=O)N[C@H](C(=O)N[C@@H](CC(C)C)C(=O)N[C@@H](CCCCN)C(=O)N[C@@H](CCCNC(=N)N)C(=O)N[C@@H](Cc1c[nH]c2ccccc12)C(=O)N[C@@H](CCCCN)C(N)=O)C(C)C)[C@@H](C)O` ([Mpa](X1)LKTRVLKRWK-NH2), the “fold change (FC)” value in data set [1] came out at 30.1. In addition, in data set [2], the viability at 50 µM stood at 87.8%. Also, the viability at 1.9 µM in the data set “in vitro [3]” came to 88.5%. For the same compound, in “in vitro [4]”, the viability at 5.6 µM came out at 80%. In the data set “in vitro [5]”, the viability at 16.7 µM was found to be 79.1%.

In the case of `CC(C)C[C@H](NC(=O)[C@H](CCCCN)NC(=O)[C@H](Cc1c[nH]c2ccccc12)NC(=O)[C@H](CCCNC(=N)N)NC(=O)[C@H](CCCCN)NC(=O)[C@H](CC(C)C)NC(=O)[C@@H](NC(=O)[C@H](CCCNC(=N)N)NC(=O)CCSSCCCOC(=O)Oc1ccc2nc(C3=N[C@@H](C(=O)O)CS3)sc2c1)C(C)C)C(=O)N[C@@H](Cc1ccccc1)C(=O)N[C@@H](CC(N)=O)C(N)=O` ([Mpa](X1)RVLKRWKLFN-NH2), the “fold change (FC)” value in data set [1] is recorded as 198.2. Further, the viability at 50 µM in data set [2] came out at 86%. Besides, the viability at 1.9 µM in “in vitro [3]” was 93.5%. For the same compound, the viability at 5.6 µM in the data set “in vitro [4]” was 94.4%. For the same compound, the viability at 16.7 µM in “in vitro [5]” amounted to 92.5%.

On to `CC(C)C[C@H](NC(=O)[C@H](CCCCN)NC(=O)[C@H](Cc1c[nH]c2ccccc12)NC(=O)[C@H](CCCNC(=N)N)NC(=O)CCSSCCCOC(=O)Oc1ccc2nc(C3=N[C@@H](C(=O)O)CS3)sc2c1)C(=O)N[C@@H](Cc1ccccc1)C(=O)N[C@@H](CC(N)=O)C(=O)N[C@@H](CCCCN)C(=O)N[C@@H](CCC(N)=O)C(=O)N[C@@H](CCC(=O)O)C(=O)N[C@@H](Cc1c[nH]c2ccccc12)C(N)=O` ([Mpa](X1)RWKLFNKQEW-NH2), for which, in data set [1], the “fold change (FC)” value is 18.2. Besides, the viability at 50 µM in data set [2] stood at 102%. The viability at 1.9 µM in “in vitro [3]” is 92.3%. In addition, in the data set “in vitro [4]”, the viability at 5.6 µM stood at 93.6%. Moreover, the viability at 16.7 µM in the data set “in vitro [5]” turned out to be 92.8%.

As for `CC(C)C[C@H](NC(=O)[C@H](CO)NC(=O)CCSSCCCOC(=O)Oc1ccc2nc(C3=N[C@@H](C(=O)O)CS3)sc2c1)C(=O)N[C@@H](CCCCN)C(=O)N[C@H](C(=O)N[C@@H](CCCNC(=N)N)C(=O)N[C@H](C(=O)N[C@@H](CC(C)C)C(=O)N[C@@H](CCCCN)C(=O)N[C@@H](CCCNC(=N)N)C(=O)N[C@@H](Cc1c[nH]c2ccccc12)C(N)=O)C(C)C)[C@@H](C)O` ([Mpa](X1)SLKTRVLKRW-NH2), in data set [1], the “fold change (FC)” value was determined as 16.7. The viability at 50 µM in data set [2] is 83.8%. Also, the viability at 1.9 µM in “in vitro [3]” came out at 84%. For the same compound, in the data set “in vitro [4]”, the viability at 5.6 µM turned out to be 89.6%. Also, the viability at 16.7 µM in “in vitro [5]” worked out at 84.3%.

For the compound `CC(C)C[C@H](NC(=O)[C@H](CCCCN)NC(=O)[C@H](Cc1c[nH]c2ccccc12)NC(=O)[C@H](CCCNC(=N)N)NC(=O)[C@H](CCCCN)NC(=O)[C@H](CC(C)C)NC(=O)[C@@H](NC(=O)[C@H](CCCNC(=N)N)NC(=O)[C@@H](NC(=O)CCSSCCCOC(=O)Oc1ccc2nc(C3=N[C@@H](C(=O)O)CS3)sc2c1)[C@@H](C)O)C(C)C)C(=O)N[C@@H](Cc1ccccc1)C(N)=O` ([Mpa](X1)TRVLKRWKLF-NH2), in data set [1], the “fold change (FC)” value worked out at 216.3. Moreover, in data set [2], the viability at 50 µM came to 88.5%. In addition, the viability at 1.9 µM in the data set “in vitro [3]” stood at 94.3%. Further, the viability at 5.6 µM in the data set “in vitro [4]” was 92.4%. The viability at 16.7 µM in “in vitro [5]” was found to be 97.3%.

`CC(C)C[C@H](NC(=O)[C@H](CCCCN)NC(=O)[C@H](Cc1c[nH]c2ccccc12)NC(=O)[C@H](CCCNC(=N)N)NC(=O)[C@H](CCCCN)NC(=O)[C@H](CC(C)C)NC(=O)[C@@H](NC(=O)CCSSCCCOC(=O)Oc1ccc2nc(C3=N[C@@H](C(=O)O)CS3)sc2c1)C(C)C)C(=O)N[C@@H](Cc1ccccc1)C(=O)N[C@@H](CC(N)=O)C(=O)N[C@@H](CCCCN)C(N)=O` ([Mpa](X1)VLKRWKLFNK-NH2): the “fold change (FC)” value in data set [1] turned out to be 30.3. Moreover, the viability at 50 µM in data set [2] came to 95.9%. Further, the viability at 1.9 µM in “in vitro [3]” was found to be 88.6%. For the same compound, in the data set “in vitro [4]”, the viability at 5.6 µM was determined as 98.5%. The viability at 16.7 µM in “in vitro [5]” worked out at 99.6%.

As usually defined, the viability is a read-out of living cells in per cent, often relative to untreated cells.
